From ChEMBL document CHEMBL1201862, “PubChem BioAssay data set” (2004)
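A five-concentration, 48-hour dose response in 96-well plates underlies each endpoint, interpolated linearly between surrounding concentrations. Abbreviation: GI50, concentration required for 50% inhibition of growth.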 Calls of active or inactive are those of the source. Cut-off read from the data, not from the text of the source: active = GI50 up to about 1.1 µM and inactive = higher.

Experiments:
Experiment in all cases: NCI tumour cell line growth inhibition, 48 h
[1] = system: Hs-578T
[2] = system: NCI/ADR-RES
[3] = system: KM12
[4] = system: SK-MEL-28
[5] = system: K562
[6] = system: CCRF-CEM
[7] = system: SNB-75
[8] = system: HOP-62
[9] = system: A549
[10] = system: SK-MEL-2
[11] = system: SW-620
[12] = system: XF498
[13] = system: MDA-MB-435
[14] = system: ACHN
[15] = system: OVCAR-5
[16] = system: BT-549
[17] = system: SK-OV-3
[18] = system: NCI-H522
[19] = system: SNB-19
[20] = system: HL-60

Compound	GI50 [1]	GI50 [2]	GI50 [3]	GI50 [4]	GI50 [5]	GI50 [6]	GI50 [7]	GI50 [8]	GI50 [9]	GI50 [10]	GI50 [11]	GI50 [12]	GI50 [13]	GI50 [14]	GI50 [15]	GI50 [16]	GI50 [17]	GI50 [18]	GI50 [19]	GI50 [20]
Nc1nc(N)c(CCCCc2ccccc2)c(N)n1	> 100 µM (inactive)	> 100 µM (inactive)	> 100 µM (inactive)	> 100 µM (inactive)	> 100 µM (inactive)	> 100 µM (inactive)	60.7 µM (inactive)	> 100 µM (inactive)	> 100 µM (inactive)	> 100 µM (inactive)	> 100 µM (inactive)	> 100 µM (inactive)	> 100 µM (inactive)	> 100 µM (inactive)	> 100 µM (inactive)	> 100 µM (inactive)	> 100 µM (inactive)	> 100 µM (inactive)	> 100 µM (inactive)	> 100 µM (inactive)
N[C@H]1C2C3CC4C5CC(C42)C1(c1ccccc1)C53 (stereo partly specified)	–	–	> 100 µM (inactive)	> 100 µM (inactive)	> 100 µM (inactive)	> 100 µM (inactive)	> 100 µM (inactive)	> 100 µM (inactive)	> 100 µM (inactive)	> 100 µM (inactive)	> 100 µM (inactive)	> 100 µM (inactive)	–	> 100 µM (inactive)	75 µM (inactive)	–	> 100 µM (inactive)	> 100 µM (inactive)	> 100 µM (inactive)	> 100 µM (inactive)
COC(=O)[C@@H]1c2[nH]c3ccccc3c2C[C@@H]2c3ccccc3NC(=O)[C@@H]21	–	–	> 100 µM (inactive)	> 91 µM (inactive)	> 100 µM (inactive)	> 77.6 µM (inactive)	12.7 µM (inactive)	14.3 µM (inactive)	38.8 µM (inactive)	> 62.8 µM (inactive)	> 70.3 µM (inactive)	> 100 µM (inactive)	–	> 100 µM (inactive)	> 100 µM (inactive)	–	20.7 µM (inactive)	> 100 µM (inactive)	> 80.2 µM (inactive)	> 100 µM (inactive)
C[C@]12CCC(=O)C(O)=C1CC[C@@H]1C2CC[C@]2(C)NC(=O)CCC12 (stereo partly specified)	–	–	> 100 µM (inactive)	> 100 µM (inactive)	> 100 µM (inactive)	> 100 µM (inactive)	> 100 µM (inactive)	> 100 µM (inactive)	> 100 µM (inactive)	> 100 µM (inactive)	> 100 µM (inactive)	> 100 µM (inactive)	–	> 100 µM (inactive)	> 100 µM (inactive)	–	> 100 µM (inactive)	> 100 µM (inactive)	> 100 µM (inactive)	> 100 µM (inactive)
N=C(N)NCCCS(=O)(=O)Nc1ccc(Nc2c3ccccc3nc3cc([N+](=O)[O-])ccc23)cc1	12.5 µM (inactive)	19.6 µM (inactive)	10.2 µM (inactive)	18.1 µM (inactive)	22.3 µM (inactive)	12.6 µM (inactive)	13 µM (inactive)	14.5 µM (inactive)	5.31 µM (inactive)	21.6 µM (inactive)	14.9 µM (inactive)	1.91 µM (inactive)	> 100 µM (inactive)	21.4 µM (inactive)	25.4 µM (inactive)	27.2 µM (inactive)	17.3 µM (inactive)	7.06 µM (inactive)	2.9 µM (inactive)	22.3 µM (inactive)
COc1cccc2c1C(=O)c1c(O)c3c(c(O)c1C2=O)C[C@@](O)(C(=O)CO)C[C@@H]3OC1CC(N)C(OC)C(C)O1 (stereo partly specified)	0.138 µM (active)	–	0.0968 µM (active)	0.315 µM (active)	0.0284 µM (active)	< 0.0146 µM (active)	0.0282 µM (active)	0.0234 µM (active)	0.0269 µM (active)	0.161 µM (active)	0.0249 µM (active)	< 0.01 µM (active)	0.267 µM (active)	0.0242 µM (active)	0.189 µM (active)	0.27 µM (active)	0.0767 µM (active)	0.076 µM (active)	0.0452 µM (active)	< 0.0163 µM (active)
N#C/N=C(/NCc1ccccc1)N(Cc1ccccc1)Cc1ccccc1	–	30.3 µM (inactive)	27.6 µM (inactive)	27.5 µM (inactive)	26.3 µM (inactive)	16.1 µM (inactive)	–	> 31.6 µM (inactive)	16.4 µM (inactive)	15.2 µM (inactive)	64 µM (inactive)	> 10 µM (inactive)	49.1 µM (inactive)	> 10 µM (inactive)	29.9 µM (inactive)	61.4 µM (inactive)	> 10 µM (inactive)	15.1 µM (inactive)	> 89.1 µM (inactive)	16.8 µM (inactive)
CN(C)C(=S)/N=c1\ssc(=S)n1Cc1ccccn1	–	–	1.14 µM (inactive)	4.65 µM (inactive)	0.748 µM (active)	10.7 µM (inactive)	4.48 µM (inactive)	10.6 µM (inactive)	3.85 µM (inactive)	1.94 µM (inactive)	2.7 µM (inactive)	8.95 µM (inactive)	–	8.24 µM (inactive)	> 100 µM (inactive)	–	4.67 µM (inactive)	0.859 µM (active)	6.55 µM (inactive)	3.19 µM (inactive)
CN(C)CCNc1ccc2nnn3c4ccc(Cl)cc4c(=O)c1c23	3.3 µM (inactive)	1.04 µM (active)	4.54 µM (inactive)	5.74 µM (inactive)	2.14 µM (inactive)	4.62 µM (inactive)	3.01 µM (inactive)	4.18 µM (inactive)	2.72 µM (inactive)	6.19 µM (inactive)	1.03 µM (active)	8.73 µM (inactive)	4.65 µM (inactive)	1.55 µM (inactive)	4.14 µM (inactive)	16 µM (inactive)	9.89 µM (inactive)	2.49 µM (inactive)	4.17 µM (inactive)	4.73 µM (inactive)
